How the values were obtained:
[1] = target: T1, Retinoic acid receptor alpha (Homo sapiens, UniProt P10276); assay: Displacement of radioligand from RARalpha receptor
T1 sequence (P10276 whole entry): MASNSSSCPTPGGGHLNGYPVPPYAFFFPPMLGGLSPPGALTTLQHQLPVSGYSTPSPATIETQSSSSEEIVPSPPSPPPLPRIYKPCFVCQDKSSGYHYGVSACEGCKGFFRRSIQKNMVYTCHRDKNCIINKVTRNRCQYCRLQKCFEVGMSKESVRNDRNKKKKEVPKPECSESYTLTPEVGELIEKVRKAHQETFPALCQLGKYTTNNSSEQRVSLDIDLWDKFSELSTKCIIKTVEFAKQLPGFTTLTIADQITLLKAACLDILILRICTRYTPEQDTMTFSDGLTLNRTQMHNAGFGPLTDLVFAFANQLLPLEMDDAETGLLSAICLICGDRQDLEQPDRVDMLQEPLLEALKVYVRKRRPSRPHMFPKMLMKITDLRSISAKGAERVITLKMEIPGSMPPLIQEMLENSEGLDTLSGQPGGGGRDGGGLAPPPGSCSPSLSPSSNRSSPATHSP

[2] = target: T2, Retinoic acid receptor beta (Homo sapiens, UniProt P10826); assay: Displacement of radioligand from RARbeta receptor
T2 sequence (P10826 whole entry): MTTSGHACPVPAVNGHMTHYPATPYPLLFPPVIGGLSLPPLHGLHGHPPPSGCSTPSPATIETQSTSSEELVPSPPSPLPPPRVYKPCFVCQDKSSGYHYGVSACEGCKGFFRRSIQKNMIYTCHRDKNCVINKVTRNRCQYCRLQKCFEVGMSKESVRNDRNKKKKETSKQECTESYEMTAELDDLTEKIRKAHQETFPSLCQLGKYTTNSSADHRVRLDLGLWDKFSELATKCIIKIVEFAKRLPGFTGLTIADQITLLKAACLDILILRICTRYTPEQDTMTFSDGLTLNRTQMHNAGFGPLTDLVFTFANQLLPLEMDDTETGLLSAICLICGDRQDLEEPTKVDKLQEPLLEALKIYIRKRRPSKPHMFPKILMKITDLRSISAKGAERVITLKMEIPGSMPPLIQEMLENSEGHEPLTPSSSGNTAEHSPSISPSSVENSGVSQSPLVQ

[3] = target: T3, Retinoic acid receptor gamma (Homo sapiens, UniProt P13631); assay: Displacement of radioligand from RARgamma receptor
T3 sequence (P13631 whole entry): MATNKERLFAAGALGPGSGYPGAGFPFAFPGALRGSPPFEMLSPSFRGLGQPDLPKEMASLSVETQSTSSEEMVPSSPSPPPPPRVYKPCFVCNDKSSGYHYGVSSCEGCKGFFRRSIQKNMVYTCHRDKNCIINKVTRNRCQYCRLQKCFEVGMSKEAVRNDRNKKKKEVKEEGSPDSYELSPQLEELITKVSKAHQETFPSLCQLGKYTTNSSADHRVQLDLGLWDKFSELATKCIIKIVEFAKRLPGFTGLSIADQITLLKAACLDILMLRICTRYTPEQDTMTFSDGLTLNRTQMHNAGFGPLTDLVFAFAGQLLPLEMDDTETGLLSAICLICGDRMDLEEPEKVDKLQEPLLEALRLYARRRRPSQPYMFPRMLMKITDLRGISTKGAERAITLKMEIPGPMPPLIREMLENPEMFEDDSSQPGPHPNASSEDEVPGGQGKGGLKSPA

IC50 [1]: 0.015 µM
IC50 [2]: 0.04 µM
IC50 [3]: 0.04 µM
Structure (SMILES): CC(=C\c1coc2cc3c(cc2c1=O)C(C)(C)CCC3(C)C)/C=C(\C)C(=O)O
